Literature values, collected in US10568927B2, “Methods and compositions comprising desmopressin in combination with a beta-3-adrenergic receptor agonist” (Serenity Pharmaceuticals, LLC, priority 2013, dated 2020).

Conditions: human, in vivo

half-life (known clearance rate): 1.5 to 2.0 h
SMILES: NC(=O)CC[C@@H]1NC(=O)[C@H](Cc2ccccc2)NC(=O)[C@H](Cc2ccc(O)cc2)NC(=O)CCSSC[C@@H](C(=O)N2CCC[C@H]2C(=O)N[C@H](CCCN=C(N)N)C(=O)NCC(N)=O)NC(=O)[C@H](CC(N)=O)NC1=O [desmopressin, 1-desamino-8-D-arginine vasopressin]
